“Also recorded” adds a separate entry of the source.
Experiments:
C2C12 myoblasts [1] = assay: Intracellular calcium in C2C12 myoblasts (Calcium Green-1; flow cytometry or plate reading); format: cell-based, mouse
Method: In preparation for measurement of changes in intracellular calcium in response to PEMF treatment with flow cytometry myoblasts (50,000 cells) were spun down (1000 RCF; 5 minutes), resuspended in 2 ml of PBS and next loaded with 20 μl Calcium Green-1, AM (50 μg in 100 μl DMSO; Molecular Probes) for 30 minutes at 37 C in the dark. Following incubation, cells were washed once, resuspended into 500 μl PBS and placed on ice before registry in a BD FACSAria Flow Cytometer (FL1 channel). For plate reading assessment of intracellular calcium, myoblasts were plated into 96 black well plates (Brand 96 Flat Bottom Black) at 10,000 cells/wells. Cultures were washed once with PBS and supplied with 250 μl growth media to which Calcium Green-1 AM (50 μg in 100 μl DMSO; Molecular Probes) had been added at a dilution of 1:1000. Myoblasts cultures were then incubated in a standard tissue culture incubator for 5 minutes, followed by PEMF exposure for 10 minutes and then replaced in the incubator for an additional 15 minutes at 37° C. before washing with 37° C. PBS. Calcium measurement was conducted using a Tecan Infinite 200Pro plate reader with excitation wavelength and emission wavelengths set to 500 nm and 535 nm, respectively, and bandwidth excitation and emission wavelengths set to 9 and 20 nm, respectively.
(§1) Each pulse train consists of 20×150 μsec asymmetric pulses separated by 150 μsec interpulse intervals to the 0 flux level. The magnetic flux density rose to maximal level within 20-50 μsec and dropped equally as rapidly (50 T/s).

C2C12 myoblasts [2] = assay: PEMF-induced proliferation of C2C12 myoblasts; conditions: 100 μM; 1 mT PEMFs within 18 hours after plating
C2C12 myoblasts [3] = assay: Myogenic differentiation (myotube area) of C2C12 myoblasts after PEMF; format: cell-based, mouse; conditions: 100 μM co-administered; 1 mT PEMFs, early application
Method: Series of 4 images with 20× magnification were taken for each sample and myotube area was calculated by manually delimiting the myotube periphery using ImageJ (Cell Counter plugin).
as §1

TRPC1 channel = target: T1, TRPC1 channel (Homo sapiens, UniProt P48995); assay: Oxygen consumption rate (OCR) of myoblasts in response to PEMF; format: cell-based; conditions: oxygen consumption measured 6 hours after PEMF
T1 construct: PEMF-induced TRPC1-mediated calcium entry in myoblasts increases oxygen consumption rate (OCR); endogenous in cells
Method: Muscle gene expression enhanced by PEMF treatment as indicated. […] The principal functions of these genes are shown in the parentheses. […] A) Human myoblast measurement showing increased OCR six hours following exposure to 1.5 mT PEMFs for 10 minutes. B) The production of reactive oxygen species (ROS) also increases 15 minutes after PEMF (1.5 mT) exposure.
C) Oxygen consumption rate (OCR) in response to PEMF stimulation obeys the same EMF efficacy window as proliferation. […] Cells were exposed to PEMFs and oxygen consumption measured 6 hours later. These cellular responses obey a mitohormeitic EMF efficacy window particular for skeletal muscle.

C2C12 myoblasts [4] = assay: Cell cycle (G2/M accumulation) of myoblasts in simulated microgravity; format: cell-based, mouse; conditions: 5 mM added transiently 10 minutes before simulated microgravity; at 2 hours
Method: The RPM was kept in a temperature-controlled room at 37° C. The calculated gravity exerted upon cells on the RPM was below 0.02 g. Cells were seeded 15 hours prior to the start of the RPM experiment at 8000/cm^2. At 15 hours some samples were incubated with 5 mM CaCl2 for 10 min, washed twice with PBS, given aged matched GM and placed onto the RPM. Other samples were exposed to PEMF at 37° C. (0.5 or 1.5 mT) for 10 min before being placed onto the RPM. Samples were fixed after 2 hours for subsequent cell cycle analysis as described below.
Following RPM treatment (above) cells were fixed and stored at −20° C. in 70% ice-cold ethanol for 12 to 18 hours prior to staining. Cell cycle was analyzed based on DNA content using a propidium iodide (PI)/RNase staining kit (BD Biosciences, cat#550825) by FACS.

[5] = extracellular magnesium raised to 10 mM, plate reading

T1 sequence (P48995 whole entry): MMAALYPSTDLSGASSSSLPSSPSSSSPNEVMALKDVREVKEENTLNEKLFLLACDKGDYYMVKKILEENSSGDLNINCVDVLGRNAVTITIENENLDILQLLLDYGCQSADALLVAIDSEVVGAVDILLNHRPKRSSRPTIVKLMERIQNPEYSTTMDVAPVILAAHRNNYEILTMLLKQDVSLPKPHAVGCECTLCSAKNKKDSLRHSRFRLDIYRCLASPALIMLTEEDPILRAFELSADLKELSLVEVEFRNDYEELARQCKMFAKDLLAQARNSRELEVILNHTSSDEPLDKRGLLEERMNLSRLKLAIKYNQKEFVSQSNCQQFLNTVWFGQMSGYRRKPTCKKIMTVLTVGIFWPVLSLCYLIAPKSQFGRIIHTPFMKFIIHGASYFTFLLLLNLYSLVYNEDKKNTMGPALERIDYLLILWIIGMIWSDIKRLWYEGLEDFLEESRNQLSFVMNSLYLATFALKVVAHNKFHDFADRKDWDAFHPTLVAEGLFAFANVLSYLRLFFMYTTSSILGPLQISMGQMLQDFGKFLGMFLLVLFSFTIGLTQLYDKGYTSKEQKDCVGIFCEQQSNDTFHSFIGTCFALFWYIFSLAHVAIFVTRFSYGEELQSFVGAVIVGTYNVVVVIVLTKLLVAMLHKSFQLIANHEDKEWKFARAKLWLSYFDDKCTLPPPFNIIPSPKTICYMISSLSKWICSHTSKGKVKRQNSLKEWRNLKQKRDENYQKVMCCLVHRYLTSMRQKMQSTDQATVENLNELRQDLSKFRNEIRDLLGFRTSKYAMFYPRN

With `NCCOB(c1ccccc1)c1ccccc1` [2-APB, 2-Aminoethyl diphenylborinate] the “[Ca^2+]i / cytosolic calcium level” value (C2C12 myoblasts [1]; 10 μM, unstimulated (0 mT) and stimulated (1 mT) myoblasts) was “reduced the cytosolic calcium levels to a common baseline; also recorded: reduced [Ca^2+]i to a common baseline”, the PEMF-provoked calcium increments (C2C12 myoblasts [1]; antagonizing TRPM7/C1 channels, 1 mT PEMFs) was “precluded the ability of PEMFs to provoke calcium increments” and the PEMF-induced proliferation (C2C12 myoblasts [2]) was “abolished the ability of PEMFs to enhance proliferation”.

In the case of neomycin, the “PEMF enhancement of myotube size (mean myotube area)” value (C2C12 myoblasts [3]) is reported as “prevented”.

With `COc1ccc(CCCOC(Cn2ccnc2)c2ccc(OC)cc2)cc1` (centres unmarked) [SKF-96365] the “OCR in response to PEMF exposure” value (TRPC1 channel) was “blocks OCR in response to PEMF exposure”.

In the case of `C[C@H](CCC(=O)O)C[C@H](C)C[C@H](C)C(=O)/C=C(\O)[C@H](C)C[C@H](C)C/C=C/[C@@H](C)[C@@H](O)[C@@H](C)[C@@H](O)C[C@@H]1CC[C@@](C)([C@H]2CC[C@@](C)([C@@H](C)O)O2)O1` [ionomycin], the “[Ca^2+]i increase relative to unexposed cells” value (C2C12 myoblasts [1]; 1 μM, 30 min, compared with 1 mT PEMFs for 10 min, listed as lonomycin) is reported as “comparable magnitude” and the “[Ca^2+]i” value (C2C12 myoblasts [1]; 1 μM, five-hour application) is reported as “produced lethal [Ca^2+]i”.

For `[Mg+2]` [magnesium], the “PEMF-induced rise of intracellular calcium” value (C2C12 myoblasts [1]; [5]) was “did not prevent PEMFs from raising intracellular calcium; also recorded: does not prevent PEMFs from raising intracellular calcium” and the “basal and PEMF-induced calcium levels” value (C2C12 myoblasts [1]; [5]) was “augmented both basal and PEMF-induced calcium levels”.

For `COc1cc(CNC(=O)CCCC/C=C/C(C)C)ccc1O` [capsaicin], the “capsaicin calcium response versus response to PEMFs” value (C2C12 myoblasts [1]; 1 mT PEMFs) was “inversely related to response to 1 mT PEMFs”.

With `[Ca+2].[Cl-].[Cl-]` [CaCl2] the “Reversal of G2/M accumulation from simulated microgravity” value (C2C12 myoblasts [4]) was “mimic the effects of 1.5 mT PEMFs”.

Reference: patent US10898708B2, “System and method for applying pulsed electromagnetic fields” (National University of Singapore, priority 2015, dated 2021)
